Data reported in PMC11808659 (RSC Advances, 2025).

tested on: K562 human leukemia cell line; assay: MTT anti-proliferative activity on K562 cell line; type: cell-based; conditions: structure-activity discussion

Structure (SMILES) | anti-tumor activity against K562 cell line (in words)
COc1ccc(-c2cc(-c3cccc(OC)c3)nc(N)n2)cc1 [1i, 4-(4-Methoxy-phenyl)-6-(3-methoxy-phenyl)-pyrimidin-2-ylamine] | completely lost their anti-tumor activity
COc1ccc(-c2cc(-c3ccc(OC)cc3)nc(N)n2)cc1 [1n, 4,6-Bis(4-methoxyphenyl)pyrimidin-2-amine] | completely lost their anti-tumor activity
Nc1nc(-c2ccc(Cl)cc2)cc(-c2ccccc2O)n1 [1f, 2-(2-Amino-6-(4-chlorophenyl)pyrimidin-4-yl)phenol] | significantly decreased the inhibitory activity
COc1ccc(-c2cc(-c3ccc(Cl)cc3)nc(N)n2)cc1 [1p, 4-(4-Chlorophenyl)-6-(4-methoxyphenyl)pyrimidin-2-amine] | significantly decreased the inhibitory activity
COc1ccc(-c2cc(-c3ccccc3O)nc(N)n2)cc1 [1d, 2-(2-Amino-6-(4-methoxyphenyl)pyrimidin-4-yl)phenol] | completely lost their anti-tumor activity
COc1cccc(-c2cc(-c3ccc(Cl)cc3)nc(N)n2)c1 [1k, 4-(4-Chloro-phenyl)-6-(3-methoxy-phenyl)-pyrimidin-2-ylamine] | significantly decreased the inhibitory activity

tested on: ABL1 tyrosine kinase; assay: ABL1 tyrosine kinase inhibition in K562 cells; type: cell-based, human; conditions: at a concentration of 30 μM

Structure (SMILES) | inhibition of ABL1 production
Nc1nc(-c2ccc(Br)cc2)cc(-c2ccccc2O)n1 [1e, 2-(2-Amino-6-(4-bromophenyl)pyrimidin-4-yl)phenol] | 80%
